Measurements from patent US7262151B2, “Methods and compositions for production of lipo-chito oligosaccharides by rhizobacteria” (McGill University, priority 2001, dated 2007).

Columns and labels:
B. japonicum USDA 110 = assay: LCO production by B. japonicum USDA 110 (butanol extraction, HPLC); type: cell-based, Bradyrhizobium japonicum
Method: Cultures of B. japonicum (strain USDA 110) were grown at 28° C. in 600 ml of sterile yeast mannitol medium (YEM) at pH 6.8. The culture was shaken at 150 rpm until an OD620 of 0.4 to 0.6 was achieved (4 to 6 days). When the culture reached this stage, it was divided equally into four flasks (150 mL) and specific concentrations of JA and genistein were added to the cultures.
One hundred and fifty mL of each culture were extracted with 40 mL of the HPLC-grade butanol (Fisher Science Ltd., 112 Colonnade Road, Nepean, ON, Canada) by shaking together for 5 minutes. The two phases were then allowed to separate by leaving the mixture to stand overnight. The upper layer (butanol) was collected with a glass pipette and 25 mL were placed in a 250 ml evaporation flask. LCO extract solutions were stored at 4° C. until evaporation. This step was conducted at 80° C. with a Yamato RE 500 Rotary Evaporator (Yamato Scientific American Inc., Orangeburge, N.Y., USA). The butanol phase was evaporated down to 2 to 3 mL. The resulting light brown material was dissolved in 4 ml of 18% acetonitrile and stored in the dark at 4° C. in a glass tube sealed with parafilm.
For HPLC analysis we used a Vydac C18 reversed—phase column (VYDAC, Hesperia, Calif., USA) with a flow rate of 1.0 mL/min and a Vydac guard column (VYDAC, Hesperia, Calif., USA). We used at least 10 min. of isocratic run with 18% acetonitrile (AcN/H2O; w/w) to establish a baseline. The baseline value was always about 0.010. When a sample was loaded we conducted an isocratic elution with 18% AcN for 45 min. This step removed all non-polar light fractions. We then applied a gradient elution (18 to 82% AcN) for 70 min. LCOs begin to appear at 84 to 86 min of HPLC run time. We used B. japonicum Nod factor (BjV (C18:1, MeFuc)) obtained from G. Stacey (University of Tennessee, Knoxville, Tenn.) as a standard. The identity of the LCO was confirmed by the Complex Carbohydrate Research Center at the University of Georgia with FAB-MS and MALDI-TOF spectrometry analysis.
There were two experiments conducted. In the first the treatments consisted of factorial combinations of two concentrations (0 and 20 μM) of two signal materials (JA and genistein (zhang and Smith, 1995)). The experiment was organized following a randomized complete block design with three blocks. In experiment 1, two temperatures were used (17 and 25° C.). […]
Each of the above experiments was conducted two times and the experimental results were pooled and analyzed statistically by analysis of variance using the Statistical Analysis System computer package (SAS Institute Inc. 1980). […] Since the effects of temperature on growth were very large, the data from two temperatures used in the first experiment were analyzed separately.

[1] = test system: Rhizobium leguminasorum strain RBL 1284; details: Rosas et al (1998); cited from earlier work
[2] = test system: Bradyrhizobium japonicum USDA 3; assay: LCO production by wild type USDA3 (XAD resin extraction, HPLC); type: cell-based; details: for production of LCOs, in words: at optimum concentrations
Method: Bradyrhizobium japonicum (strain USDA 3) was grown at 28° C. in yeast extract mannitol medium (YEM) (mannitol 10 g, K2HPO4 0.5 g, MgSO4.7H2O 0.2 g, NaCl 0.1 g, yeast extract 0.4 g, and distilled water 1000 ml), pH 6.8, shaken at 150 rpm until the OD620 reached 0.4-0.6 (4-6 d) in the dark. Thereafter, 2.0 l of bacterial subculture was started by inoculating with material from the first culture (5 ml of the first culture per 250 ml of YEM media), until the OD620 reached to 0.2-0.4. At this stage, methyl jasmonate, jasmonic acid and genistein were added to culture so that the final concentraton for methyl jasmonate and jasmonic acid was 5, 10, 25, 50 and 100 μM and 5 μM for genistein. The culture was incubated for 48-96 h and the LCO extracted according to the following procedure.
The LCO from the induced bacterial culture was isolated with XAD resins. Before using XAD resins for extraction, they were first conditioned. Each 40 grams of XAD resins were first washed two times with 20 mL acetone after conditioning for 15 minutes. This was followed by two washes of 20 mL methanol when the resins were conditioned for 15 minutes. Finally, the XAD resins were conditioned (5 min) and washed with 20 mL dd. water two times. The conditioned resins were placed in the refrigerator at 4° C. until use.
For each one liter of bacterial culture, 40 grams of resin was added to the flask and these were shaken together overnight at 150 rpm. The culture along with the resin was poured through a funnel into a flask fitted with a course brass mesh (fine enough to allow the culture go quickly through and filter out the resin without any loss). At this stage, the resins are washed with water. In order to extract LCO from the resin, the XAD resin was passed through a vacuum filtration system. The fritted glass base of the system was fitted with Whatman #1 paper disk with the objective to keep the solvent with the bead until vacuum is applied. The resin beads were washed two times with 40 mL methanol after conditioning for 5 minutes. […]

Row | SMILES | peak-time for LCO production (B. japonicum USDA 110; after genistein was added to the cell culture) | expression of nod genes, in words [1] | production of LCOs, in words [2] | effect on LCO production, in words (B. japonicum USDA 110; 25° C., genistein present) | effect on LCO production, in words (B. japonicum USDA 110; JA alone, without genistein, either temperature) | effect on LCO production, in words (B. japonicum USDA 110; low temperature (17° C.), genistein present) | LCO production compared with optimum genistein concentration (5 μM) ([2]; 100 μM)
1 | O=c1c(-c2ccc(O)cc2)coc2cc(O)cc(O)c12 [GEN, 5,7,4′-trihydroxyisoflavone] | 8 to 10 h | – | – | – | – | – | –
2 | CC/C=C\C[C@H]1C(=O)CC[C@@H]1CC(=O)O [JA, [1R-[1α,2β(Z)]]-3-oxo-2-(pentenyl)cyclopentaneacetic acid] | – | induced expression of nod genes | induced the production of LCOs | not at 25 °C | can not promote LCO production | can improve LCO production | –
3 | CC/C=C\CC1C(=O)CCC1CC(=O)OC (stereo not drawn) [MeJA, methyl jasmonate] | – | induced expression of nod genes | induced the production of LCOs | – | – | – | substantially more LCO
